# Data taken from publication PMC5357620, “The NiFe Hydrogenases of the Tetrachloroethene-Respiring Epsilonproteobacterium Sulfurospirillum multivorans: Biochemical Studies and Transcription Analysis” (Frontiers in Microbiology, 2017).
# Target: T1, membrane-bound hydrogenase (MBH, HydABC) (Sulfurospirillum multivorans, UniProt A0AA86ALJ1+A0AA86ANH9+A0AA86DZD7)
# T1 construct: gene hydB; HydA TAT signal peptide cleaved; predicted HydB 62, HydA 34, HydC 26 kDa; dimer of heterotrimers, about 270 kDa; with Periplasmic [NiFe] hydrogenase, large subunit
# T1 sequence (A0AA86DZD7 1-561): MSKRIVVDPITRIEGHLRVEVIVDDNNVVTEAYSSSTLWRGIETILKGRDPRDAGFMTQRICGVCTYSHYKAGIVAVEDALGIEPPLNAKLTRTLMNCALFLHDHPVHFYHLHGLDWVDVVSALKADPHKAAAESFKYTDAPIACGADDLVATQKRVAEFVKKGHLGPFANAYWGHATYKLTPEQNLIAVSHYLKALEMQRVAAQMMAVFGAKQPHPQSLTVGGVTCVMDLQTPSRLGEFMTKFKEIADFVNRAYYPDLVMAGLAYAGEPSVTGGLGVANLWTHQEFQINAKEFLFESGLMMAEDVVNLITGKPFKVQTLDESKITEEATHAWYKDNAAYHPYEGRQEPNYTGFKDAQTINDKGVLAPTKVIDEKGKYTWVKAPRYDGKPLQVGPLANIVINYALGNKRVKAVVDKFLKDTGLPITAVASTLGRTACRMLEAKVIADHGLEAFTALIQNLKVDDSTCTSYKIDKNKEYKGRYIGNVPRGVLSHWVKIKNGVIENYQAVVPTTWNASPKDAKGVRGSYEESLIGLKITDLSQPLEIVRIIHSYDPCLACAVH
# T1 sequence (A0AA86ALJ1 68-385): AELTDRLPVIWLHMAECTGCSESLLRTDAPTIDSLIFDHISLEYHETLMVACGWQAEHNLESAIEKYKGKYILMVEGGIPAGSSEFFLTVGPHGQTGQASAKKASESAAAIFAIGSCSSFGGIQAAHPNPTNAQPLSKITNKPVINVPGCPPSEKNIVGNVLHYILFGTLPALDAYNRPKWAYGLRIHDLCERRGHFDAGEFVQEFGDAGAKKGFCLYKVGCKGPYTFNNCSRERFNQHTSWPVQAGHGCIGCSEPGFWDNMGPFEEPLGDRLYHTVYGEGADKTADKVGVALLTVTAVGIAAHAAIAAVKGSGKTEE
# T1 sequence (A0AA86ANH9 1-225): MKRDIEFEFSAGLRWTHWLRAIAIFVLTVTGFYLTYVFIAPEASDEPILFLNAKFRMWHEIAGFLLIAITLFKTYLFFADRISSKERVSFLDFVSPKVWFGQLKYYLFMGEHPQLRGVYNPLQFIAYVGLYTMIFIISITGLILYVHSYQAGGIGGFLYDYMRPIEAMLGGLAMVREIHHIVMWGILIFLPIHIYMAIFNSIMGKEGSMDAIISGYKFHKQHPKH
# Assay: spectrophotometric H2-dependent DMN reduction, […] nm minus […] nm
# Format: biochemical
# Conditions: H2 as electron donor; 0.2 mM DMN; 50 mM glycylglycine pH 8.0; 0.5 mM DTT; electron acceptor, presumably via HydC cytochrome b; partially purified enzyme
structure (smiles),measurement,value
"CC1=C(C)C(=O)c2ccccc2C1=O [DMN, 2,3-dimethyl-1,4-naphthoquinone]","spectrophotometric H2-dependent DMN reduction, 270 nm minus 290 nm",both fractions showed activity with DMN as electron acceptor
